This data set is described as follows: pharmacokinetics of etoricoxib compared to traditional NSAIDs. The data set is classed as in vivo. The note with it: as compared to traditional NSAIDs such as naproxen.

With `Cc1ccc(-c2ncc(Cl)cc2-c2ccc(S(C)(=O)=O)cc2)cn1` [Etoricoxib, etoricoxib], the half-life entry was “longer” and the “time to maximum concentration” value is “shorter”.

The values above are taken from US20040132780A1, “Method and compositions for treating migraines” (priority 2001, published 2004).
